According to US8828992B2, “Substituted azole derivatives, pharmaceutical composition containing the derivatives, and method for treating Parkinson's disease using the same” (priority 2009, dated 2014):

Target: T1, Monoamineoxidase B type human-derived enzyme (Homo sapiens, UniProt P27338)
T1 sequence (P27338 1-520): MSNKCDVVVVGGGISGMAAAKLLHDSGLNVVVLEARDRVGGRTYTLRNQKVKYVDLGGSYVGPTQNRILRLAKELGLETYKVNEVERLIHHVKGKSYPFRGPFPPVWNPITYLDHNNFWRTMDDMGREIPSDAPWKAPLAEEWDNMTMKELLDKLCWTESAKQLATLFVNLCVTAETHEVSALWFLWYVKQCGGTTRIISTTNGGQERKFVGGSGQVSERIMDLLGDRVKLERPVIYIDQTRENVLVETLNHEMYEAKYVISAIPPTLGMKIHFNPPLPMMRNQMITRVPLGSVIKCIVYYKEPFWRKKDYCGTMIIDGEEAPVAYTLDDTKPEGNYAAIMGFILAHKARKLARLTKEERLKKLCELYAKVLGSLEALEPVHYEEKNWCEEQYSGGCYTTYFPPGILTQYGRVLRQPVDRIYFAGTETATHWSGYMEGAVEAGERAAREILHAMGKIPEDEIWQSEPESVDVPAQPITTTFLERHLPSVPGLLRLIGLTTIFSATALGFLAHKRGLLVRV
Experiment: Inhibitory effects on the activity of MAO-B (Amplex Red fluorescence, benzylamine substrate)
Format: biochemical
Settings: treatment concentration 10 nM; read-out: Inhibitory effects (%) on the activity of MAO-B
Method: Monoamineoxidase A or B type human-derived enzyme (5 mg/ml) was each diluted with 0.05 M sodium phosphate buffer (pH 7.4) to yield a dilution of 1:200, and then 100 μl of an enzyme buffer containing 2 μl of a compound 1 solution at the corresponding concentration was placed in a test plate (flat-bottom) and incubated for 30 minutes.
100 μl of a working buffer containing 400 μM of Amplex Red reagent, 2 U/ml horseradish peroxidase, and 2 mM substrate (tyramine for MAO-A and benzylamine for MAO-B) in 0.05 M sodium phosphate buffer (pH 7.4) was mixed with a pre-incubated enzyme buffer at 1:1 and measured using fluorescence (EX: 563 nm & EM: 587 nm) for 30 minutes.

Row | SMILES | inhibition at 0.01 µM [%]
1 | NC(=O)OCc1cc(-c2ccc(NCc3cccc(F)c3F)cc2)no1 [Example 80, Carbamic acid 3-[4-(2,3-difluoro-benzylamino)-phenyl]-isoxazol-5-ylmethyl ester] | 74.5
2 | NC(=O)OCc1cc(-c2ccc(NCc3cc(F)cc(F)c3)cc2)no1 [Example 82, Carbamic acid 3-[4-(3,5-difluoro-benzylamino)-phenyl]-isoxazol-5-ylmethyl ester] | 56.5
3 | NC(=O)OCc1cc(-c2ccc(NCc3cc(F)ccc3F)cc2)no1 [Example 83, Carbamic acid 3-[4-(2,5-difluoro-benzylamino)-phenyl]-isoxazol-5-ylmethyl ester] | 54.9
4 | NC(=O)OCc1cc(-c2ccc(NCc3ccc(Cl)cc3)cc2)no1 [Example 85, Carbamic acid 3-[4-(4-chloro-benzylamino)-phenyl]-isoxazol-5-ylmethyl ester] | 50.1
5 | NC(=O)OCc1cc(-c2ccc(NCc3ccccc3Cl)cc2)no1 [Example 86, Carbamic acid 3-[4-(2-chloro-benzylamino)-phenyl]-isoxazol-5-ylmethyl ester] | 83.3
6 | NC(=O)OCc1cc(-c2ccc(NCc3cccc(Cl)c3)cc2)no1 [Example 87, Carbamic acid 3-[4-(3-chloro-benzylamino)-phenyl]-isoxazol-5-ylmethyl ester] | 78.6
7 | NC(=O)OCc1cc(-c2ccc(NCc3cccc(Cl)c3Cl)cc2)no1 [Example 88, carbamic acid 3-[4-(2,3-dichloro-benzylamino)-phenyl]-isoxazol-5-ylmethyl ester] | 60
8 | NC(=O)OCc1cc(-c2ccc(NCc3ccc(Cl)cc3Cl)cc2)no1 [Example 89, carbamic acid 3-[4-(2,4-dichloro-benzylamino)-phenyl]-isoxazol-5-ylmethyl ester] | 54.7
9 | NC(=O)OCc1cc(-c2ccc(NCc3cc(Cl)ccc3Cl)cc2)no1 [Example 90, carbamic acid 3-[4-(2,5-dichloro-benzylamino)-phenyl]-isoxazol-5-ylmethyl ester] | 20.3
10 | NC(=O)OCc1cc(-c2ccc(NCc3c(Cl)cccc3Cl)cc2)no1 [Example 91, carbamic acid 3-[4-(2,6-dichloro-benzylamino)-phenyl]-isoxazol-5-ylmethyl ester] | 73.1
11 | NC(=O)OCc1cc(-c2ccc(NCc3ccc(Cl)c(Cl)c3)cc2)no1 [Example 92, carbamic acid 3-[4-(3,4-dichloro-benzylamino)-phenyl]-isoxazol-5-ylmethyl ester] | 75.2
12 | NC(=O)OCc1cc(-c2ccc(NCc3cc(Cl)cc(Cl)c3)cc2)no1 [Example 93, carbamic acid 3-[4-(3,5-dichloro-benzylamino)-phenyl]-isoxazol-5-ylmethyl ester] | 24.1
13 | NC(=O)OCc1cc(-c2ccc(NCc3c(Cl)ccc(Cl)c3Cl)cc2)no1 [Example 95, carbamic acid 3-[4-(2,3,6-trichloro-benzylamino)-phenyl]-isoxazol-5-ylmethyl ester] | 24.3
14 | NC(=O)OCc1cc(-c2ccc(NCc3cccc(C(F)(F)F)c3)cc2)no1 [Example 96, Carbamic acid 3-[4-(3-trifluoromethyl-benzylamino)-phenyl]-isoxazol-5-ylmethyl ester] | 40.9
15 | Cc1ccccc1CNc1ccc(-c2cc(COC(N)=O)on2)cc1 [Example 99, Carbamic acid 3-[4-(2-methyl-benzylamino)-phenyl]-isoxazol-5-ylmethyl ester] | 79.7
16 | Cc1ccc(CNc2ccc(-c3cc(COC(N)=O)on3)cc2)cc1 [Example 100, Carbamic acid 3-[4-(4-methyl-benzylamino)-phenyl]-isoxazol-5-ylmethyl ester] | 23.7

Row | SMILES | inhibition at 0.01 µM [%]
17 | Cc1ccc(CNc2ccc(-c3cc(COC(N)=O)on3)cc2)c(C)c1 [Example 103, Carbamic acid 3-[4-(2,4-dimethyl-benzylamino)-phenyl]-isoxazol-5-ylmethyl ester] | 20.7
18 | COc1cccc(CNc2ccc(-c3cc(COC(N)=O)on3)cc2)c1 [Example 105, Carbamic acid 3-[4-(3-methoxy-benzylamino)-phenyl]-isoxazol-5-ylmethyl ester] | 53.7
19 | Cc1noc(C)c1CNc1ccc(-c2cc(COC(N)=O)on2)cc1 [Example 112, carbamic acid 3-{4-[(3,5-dimethyl-isoxazol-4-ylmethyl)-amino]-phenyl}-isoxazol-5-ylmethyl ester] | 26
20 | CC(OC(N)=O)c1cc(-c2ccc(OCc3ccccc3)cc2)no1 (centres unmarked) [Example 117, carbamic acid 1-[3-(4-benzyloxy-phenyl)-isoxazol-5-yl]-ethyl ester] | 68.5
21 | NC(=O)OCCc1cc(-c2ccc(OCc3ccccc3)cc2)no1 [Example 118, carbamic acid 2-[3-(4-benzyloxy-phenyl)-isoxazol-5-yl]-ethyl ester] | 25.7
22 | C#CCNCc1cc(-c2ccc(OCc3ccccc3)cc2)no1 [Example 119, [3-(4-benzyloxy-phenyl)-isoxazol-5-ylmethyl]-prop-2-ynyl-amine] | 81.7
23 | O=C(OCc1cc(-c2ccc(OCc3ccccc3)cc2)no1)N1CCCC1 [Example 125, pyrrolidine-1-carboxylic acid 3-(4-benzyloxy-phenyl)-isoxazol-5-ylmethyl ester] | 65.8
24 | O=C(OCc1cc(-c2ccc(OCc3ccccc3)cc2)no1)N1CCCCC1 [Example 126, piperidine-1-carboxylic acid 3-(4-benzyloxy-phenyl)-isoxazol-5-ylmethyl ester] | 48.7
25 | CN(C)NC(=O)OCc1cc(-c2ccc(OCc3ccccc3)cc2)no1 [Example 129, N′,N′-dimethyl-hydrazinecarboxylic acid 3-(4-benzyloxy-phenyl)-isoxazol-5-ylmethyl ester] | 22
26 | OC1CCN(Cc2cc(-c3ccc(OCc4ccccc4)cc3)no2)CC1 [Example 137, 1-[3-(4-benzyloxy-phenyl)-isoxazol-5-ylmethyl]-piperidin-4-ol] | 43.5
27 | NC(=O)OC1CCN(Cc2cc(-c3ccc(OCc4ccccc4)cc3)no2)CC1 [Example 138, Carbamic acid 1-[3-(4-benzyloxy-phenyl)-isoxazol-5-ylmethyl]-piperidin-4-yl ester] | 39.1
28 | c1ccc(COc2ccc(-c3cc(Cn4ccnc4)on3)cc2)cc1 [Example 139, 3-(4-benzyloxy-phenyl)-5-imidazol-1-ylmethyl-isoxazole] | 84.6
29 | Cc1nccn1Cc1cc(-c2ccc(OCc3ccccc3)cc2)no1 [Example 140, 3-(4-benzyloxy-phenyl)-5-(2-methyl-imidazol-1-ylmethyl)-isoxazole] | 91.7
30 | c1ccc(COc2ccc(-c3cc(Cn4cncn4)on3)cc2)cc1 [Example 144, 1-[3-(4-benzyloxy-phenyl)-isoxazol-5-ylmethyl]-1H-[1,2,4]triazole] | 97.3
31 | c1ccc(COc2ccc(-c3cc(Cn4ccnn4)on3)cc2)cc1 [Example 145, 1-[3-(4-benzyloxy-phenyl)-isoxazol-5-ylmethyl]-1H-[1,2,3]triazole] | 39.2
32 | c1ccc(COc2ccc(-c3cc(Cn4ncnn4)on3)cc2)cc1 [Example 146, 2-[3-(4-benzyloxy-phenyl)-isoxazol-5-ylmethyl]-2H-tetrazole] | 86
